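Cells were grown in 96-well plates and exposed to each compound for 48 hours at five concentrations; endpoints were interpolated linearly between bracketing concentrations, or set to the highest concentration if not reached. At the GI50, growth is halved.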 Active and inactive are the calls of the source. Rule as the data show it: active = GI50 up to about 1.1 µM and inactive = higher.
Tests used:
Test in all cases: DTP human tumour cell line panel, 48 h
A549 = system: A549
COLO 205 = system: COLO 205
EKVX = system: EKVX
HCC 2998 = system: HCC 2998
IGROV-1 = system: IGROV-1
KM12 = system: KM12
LOX IMVI = system: LOX IMVI
M14 = system: M14
Malme-3M = system: Malme-3M
NCI-H23 = system: NCI-H23
OVCAR-3 = system: OVCAR-3
OVCAR-5 = system: OVCAR-5
OVCAR-8 = system: OVCAR-8
SK-OV-3 = system: SK-OV-3
SW-620 = system: SW-620
TK-10 = system: TK-10
UACC-62 = system: UACC-62
HCT-15 = system: HCT-15
SN12C = system: SN12C
CAKI-1 = system: CAKI-1

Structure (SMILES)	GI50 (A549)	GI50 (COLO 205)	GI50 (EKVX)	GI50 (HCC 2998)	GI50 (IGROV-1)	GI50 (KM12)	GI50 (LOX IMVI)	GI50 (M14)	GI50 (Malme-3M)	GI50 (NCI-H23)	GI50 (OVCAR-3)	GI50 (OVCAR-5)	GI50 (OVCAR-8)	GI50 (SK-OV-3)	GI50 (SW-620)	GI50 (TK-10)	GI50 (UACC-62)	GI50 (HCT-15) [µM]	GI50 (SN12C)	GI50 (CAKI-1)
Cc1ccc(S(=O)(=O)N/N=C(/c2nc3ccc([N+](=O)[O-])cc3nc2O)C(O)c2ccc(C(O)/C(=N\NS(=O)(=O)c3ccc(C)cc3)c3nc4ccc([N+](=O)[O-])cc4nc3O)cc2)cc1 (stereo not drawn)	49.1 µM (inactive)	41.4 µM (inactive)	81.7 µM (inactive)	28 µM (inactive)	> 100 µM (inactive)	19.3 µM (inactive)	20.3 µM (inactive)	20.8 µM (inactive)	> 100 µM (inactive)	> 100 µM (inactive)	61.2 µM (inactive)	> 100 µM (inactive)	92.3 µM (inactive)	> 100 µM (inactive)	42.8 µM (inactive)	> 100 µM (inactive)	68.4 µM (inactive)			
Cc1cc(C)c(S(=O)(=O)N(CCCCCCN)OCCCN)c(C)c1	70 µM (inactive)	17.3 µM (inactive)	15.3 µM (inactive)	16.6 µM (inactive)	13.9 µM (inactive)	15.1 µM (inactive)	12.2 µM (inactive)	20.9 µM (inactive)	10.3 µM (inactive)	17.1 µM (inactive)	19.9 µM (inactive)	21.7 µM (inactive)	14 µM (inactive)	18.4 µM (inactive)	17.9 µM (inactive)	15.4 µM (inactive)	19.5 µM (inactive)	17.7	19.6 µM (inactive)	
CC1C(/C=C/c2ccoc2)ON2CCCC12 (stereo not drawn)		> 100 µM (inactive)	> 100 µM (inactive)	> 100 µM (inactive)			> 100 µM (inactive)	> 10 µM (inactive)	54.2 µM (inactive)	> 100 µM (inactive)		> 100 µM (inactive)	> 100 µM (inactive)		> 100 µM (inactive)	> 100 µM (inactive)			> 100 µM (inactive)	> 100 µM (inactive)
C=C1CC[C@](C)(O)[C@@]2(C)CC[C@H]3C(=C(C)C)C(=O)C[C@]3(C)C[C@H]12	42.6 µM (inactive)	36.1 µM (inactive)	> 50 µM (inactive)	23 µM (inactive)	14.7 µM (inactive)	21 µM (inactive)	10.4 µM (inactive)	37.5 µM (inactive)		> 50 µM (inactive)	29.9 µM (inactive)	> 50 µM (inactive)	> 50 µM (inactive)	> 50 µM (inactive)	21.6 µM (inactive)	> 50 µM (inactive)	16.5 µM (inactive)	14.9	> 50 µM (inactive)	22.4 µM (inactive)
Nc1cc(O)c2cc(/N=N/c3ccc(/N=N/c4ccc(/N=N/c5ccc6cc(S(=O)(=O)O)cc(S(=O)(=O)O)c6c5)c5ccccc45)c4cc(S(=O)(=O)O)ccc34)c(S(=O)(=O)O)cc2c1	96.8 µM (inactive)	> 100 µM (inactive)	> 100 µM (inactive)	> 100 µM (inactive)	> 100 µM (inactive)	> 100 µM (inactive)	> 100 µM (inactive)		> 100 µM (inactive)	> 100 µM (inactive)	67.6 µM (inactive)	> 100 µM (inactive)	> 100 µM (inactive)	> 100 µM (inactive)	> 100 µM (inactive)		> 100 µM (inactive)	42.4	> 100 µM (inactive)	
CC1CCC2C(C(=O)O[C@H]3C4CCO[C@@H](OC5OC(CO)C(O)C(O)C5O)C4[C@@]4(CO)O[C@@H]34)=CO[C@@H](OC3OC(CO)C(O)C(O)C3O)C12 (stereo partly drawn)	> 10 µM (inactive)		> 10 µM (inactive)	> 10 µM (inactive)	> 10 µM (inactive)	> 10 µM (inactive)	> 10 µM (inactive)	> 10 µM (inactive)	> 10 µM (inactive)	> 10 µM (inactive)	> 10 µM (inactive)	> 10 µM (inactive)	> 10 µM (inactive)	> 10 µM (inactive)	> 10 µM (inactive)	> 10 µM (inactive)	> 10 µM (inactive)	> 10	> 10 µM (inactive)	
COc1cc(C2c3cc4c(cc3[C@@H](Oc3ccc(F)cc3)C3COC(=O)[C@H]23)OCO4)cc(OC)c1O (stereo partly drawn)	0.405 µM (active)	1.75 µM (inactive)	> 43.8 µM (inactive)	2.28 µM (inactive)	1.32 µM (inactive)	4.03 µM (inactive)	0.578 µM (active)		0.653 µM (active)	0.335 µM (active)	1.75 µM (inactive)	> 100 µM (inactive)	0.447 µM (active)		0.481 µM (active)		0.518 µM (active)	0.364	3.19 µM (inactive)	0.456 µM (active)
CCOc1cc(C=O)ccc1O [ETHYL VANILLIN]	> 100 µM (inactive)	> 100 µM (inactive)	> 100 µM (inactive)	> 100 µM (inactive)	> 100 µM (inactive)	> 100 µM (inactive)	> 100 µM (inactive)	> 100 µM (inactive)	> 100 µM (inactive)	> 100 µM (inactive)	> 100 µM (inactive)	> 100 µM (inactive)	> 100 µM (inactive)		> 100 µM (inactive)	> 100 µM (inactive)		> 100	> 100 µM (inactive)	> 100 µM (inactive)
